According to article PMC4992173, “Divergent synthesis and identification of the cellular targets of deoxyelephantopins” (Nature Communications, 2016):

Molecular target: T1, Protein HGH1 homolog (HGH1) (Homo sapiens, UniProt Q9BTY7)
T1 construct: 1,522 proteins were enriched from MCF7 cells by 10 μM probe 24c; endogenous in cells; host or cells: MCF7
Assay: In situ competitive profiling in live MCF7 cells (LFQ): HGH1
Format: cell-based
Conditions: 4 h, then 10 µM 24c, n=4
From the text: In our efforts to determine the direct molecular targets of deoxyelephantopin we first performed a gel-based competitive in situ proteomic profiling assay[41] […] While the greater conformational flexibility of probe 24c could potentially lead to more promiscuous target engagement relatively to deoxyelephantopin, it was favoured based on the fact that an alkyne moiety appended to the rigid scaffold of deoxyelephantopin may hinder some of its interactions. MCF7 cells were pretreated with various concentrations of deoxyelephantopin for 4 h, harvested, lysed and the lysates were treated with the fluorogenic probe 24c-Cy3 (10 μM; Supplementary Fig. 10). […] Furthermore, cells were pretreated with 20 μM concentration of deoxyelephantopin or 24c and the proteomic profiles were compared (Fig. 6b, Supplementary Fig. 11). Multiple bands were detected that were equally competed by both DEP and 24c, thus again confirming that 24c can be used as an acceptable clickable analogue of deoxyelephantopin in pulldown assays. Having established the optimal labelling conditions by SDS–PAGE, we next carried out a mass spectrometry-based competitive profiling assay[42] coupled with the method of stable isotope labelling of amino acids in culture (SILAC)[43]. […]
Figure 6 Proteome-wide identification of deoxyelephantopin targets. […] Quantification was performed using label-free quantification (LFQ) method (n=4). […]

T1 sequence (Q9BTY7 whole entry): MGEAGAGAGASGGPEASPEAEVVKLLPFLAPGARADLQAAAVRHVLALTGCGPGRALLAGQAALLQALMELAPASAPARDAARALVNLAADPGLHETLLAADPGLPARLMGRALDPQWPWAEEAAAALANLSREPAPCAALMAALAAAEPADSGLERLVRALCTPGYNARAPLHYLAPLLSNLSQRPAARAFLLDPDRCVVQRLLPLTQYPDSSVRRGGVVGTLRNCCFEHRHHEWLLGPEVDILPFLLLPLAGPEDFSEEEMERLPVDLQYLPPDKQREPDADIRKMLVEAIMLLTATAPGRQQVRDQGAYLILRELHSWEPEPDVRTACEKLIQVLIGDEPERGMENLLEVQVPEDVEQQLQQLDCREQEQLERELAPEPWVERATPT

C=C(C)C(=O)O[C@H]1CC2=C[C@@H](C/C(C)=C/[C@H]3OC(=O)C(=C)[C@H]13)OC2=O [deoxyelephantopin]
LFQ ratio 20 µM Deoxyelephantopin/DMSO with 24c: 0.00
